According to PMC10797628:
Where two headings read alike, the source gives them in different places.

Experiments:
[1] = target: T1, human 5-HT1A receptor (Homo sapiens, UniProt P08908); experiment: Radioligand binding (saturation and competition), WT 5-HT1A
T1 construct: host or cells: HEK293T
T1 sequence (P08908 1-422): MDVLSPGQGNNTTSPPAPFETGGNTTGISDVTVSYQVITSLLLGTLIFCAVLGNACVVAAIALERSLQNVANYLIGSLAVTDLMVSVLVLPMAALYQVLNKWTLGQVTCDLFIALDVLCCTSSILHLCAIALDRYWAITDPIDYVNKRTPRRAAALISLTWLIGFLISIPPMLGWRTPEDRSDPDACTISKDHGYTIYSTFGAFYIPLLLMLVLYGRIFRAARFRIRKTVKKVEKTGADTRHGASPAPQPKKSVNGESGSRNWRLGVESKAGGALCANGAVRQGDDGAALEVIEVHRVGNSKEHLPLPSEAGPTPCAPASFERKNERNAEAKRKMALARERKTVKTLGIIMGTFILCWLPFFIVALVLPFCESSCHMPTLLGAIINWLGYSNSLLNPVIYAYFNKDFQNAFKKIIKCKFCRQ

[2] = target: T2, human 5-HT1B receptor (Homo sapiens, UniProt P28222); experiment: Radioligand binding (saturation and competition), WT 5-HT1B
T2 construct: host or cells: HEK293T

[3] = target: T3, human 5-HT1D receptor (Homo sapiens, UniProt P28221); experiment: Radioligand binding (saturation and competition), WT 5-HT1D
T3 construct: host or cells: HEK293T

[4] = target: T4, human 5-HT1F receptor (Homo sapiens, UniProt P30939); experiment: Radioligand binding (saturation and competition), WT 5-HT1F
T4 construct: host or cells: HEK293T
T4 sequence (P30939 1-366): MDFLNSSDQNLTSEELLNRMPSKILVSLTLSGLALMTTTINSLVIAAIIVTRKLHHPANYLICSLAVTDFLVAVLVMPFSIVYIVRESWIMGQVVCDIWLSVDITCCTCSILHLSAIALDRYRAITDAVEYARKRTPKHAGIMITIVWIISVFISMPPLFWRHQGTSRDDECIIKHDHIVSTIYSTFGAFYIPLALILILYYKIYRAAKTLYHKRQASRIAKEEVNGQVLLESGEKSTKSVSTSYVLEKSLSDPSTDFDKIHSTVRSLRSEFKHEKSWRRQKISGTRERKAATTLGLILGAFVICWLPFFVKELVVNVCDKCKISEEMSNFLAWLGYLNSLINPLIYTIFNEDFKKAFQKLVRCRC

[5] = target: T1, human 5-HT1A receptor; experiment: cAMP accumulation (LANCE Ultra TR-FRET) in HEK293T cells, WT 5-HT1A; format: cell-based; conditions: WT receptor; normalized to basal (0%) and 10 μM 5-CT (100%)
Protocol: (§1) Briefly, cells transfected with the desired receptor construct and compounds were incubated in the dark for 90 min at 37 °C. After incubation, cAMP detection reagents were added, and TR-FRET was used to quantify the cAMP produced.
(§2) The functional activity of compounds was determined by stimulating cells expressing the desired receptor with FSK and test compound in parallel with 12 known concentrations of cAMP. The known concentrations of cAMP were used to create a standard curve for each experiment that was used to interpolate the unknown values of cAMP in wells with test compounds. […] The EC50 and EMAX values were determined using the “dose response – log[agonist] vs response (three parameter)” nonlinear regression model in Prism and transformed to pEC50 values, reported as mean ± SD.
(§3) Summary of functional assay conditions at various 5-HT1 receptor point mutation constructs.

[6] = target: T2, human 5-HT1B receptor; experiment: cAMP accumulation (LANCE Ultra TR-FRET) in HEK293T cells, WT 5-HT1B; format: cell-based; conditions: WT receptor; normalized to basal (0%) and 10 μM 5-CT (100%)
Protocol: as §1, §2, §3

[7] = target: T3, human 5-HT1D receptor; experiment: cAMP accumulation (LANCE Ultra TR-FRET) in HEK293T cells, WT 5-HT1D; format: cell-based; conditions: WT receptor; normalized to basal (0%) and 10 μM 5-CT (100%)
Protocol: as §1, §2, §3

[8] = Affinity (pKi ± SD) 5-HT1A, WT receptor, [^3H]5-CT competition, mean ± SD
[9] = Affinity (pKi ± SD) 5-HT1B, WT receptor, [^3H]5-CT competition, mean ± SD
[10] = Affinity (pKi ± SD) 5-HT1D, WT receptor, [^3H]5-CT competition, mean ± SD

T3 sequence (P28221 whole entry): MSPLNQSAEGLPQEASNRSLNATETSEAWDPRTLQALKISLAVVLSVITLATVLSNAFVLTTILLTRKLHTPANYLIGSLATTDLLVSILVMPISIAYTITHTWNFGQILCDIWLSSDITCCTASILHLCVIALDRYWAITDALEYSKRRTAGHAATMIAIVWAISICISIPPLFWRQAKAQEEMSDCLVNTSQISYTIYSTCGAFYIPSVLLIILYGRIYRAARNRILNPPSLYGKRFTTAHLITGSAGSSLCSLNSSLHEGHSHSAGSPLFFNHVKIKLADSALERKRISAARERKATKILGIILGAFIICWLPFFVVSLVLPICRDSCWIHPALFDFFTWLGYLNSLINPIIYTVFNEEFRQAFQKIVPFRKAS
T2 sequence (P28222 whole entry): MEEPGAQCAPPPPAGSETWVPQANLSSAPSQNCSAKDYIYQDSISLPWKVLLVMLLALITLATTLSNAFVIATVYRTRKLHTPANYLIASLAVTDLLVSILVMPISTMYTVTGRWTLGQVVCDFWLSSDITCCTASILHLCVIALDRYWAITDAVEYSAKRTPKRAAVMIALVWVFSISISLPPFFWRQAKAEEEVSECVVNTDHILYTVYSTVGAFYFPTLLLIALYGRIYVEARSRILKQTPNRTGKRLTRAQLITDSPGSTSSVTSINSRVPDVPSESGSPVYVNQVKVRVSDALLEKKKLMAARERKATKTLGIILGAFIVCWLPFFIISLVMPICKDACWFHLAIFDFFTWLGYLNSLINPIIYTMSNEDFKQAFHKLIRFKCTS

| Compound | Ki [1, 8] [µM] | Ki [2, 9] [µM] | Ki [3, 10] [µM] | Ki [4] [µM] | also measured |
| --- | --- | --- | --- | --- | --- |
| CCCN(CCC)C1CCc2cccc(O)c2C1 (stereo not shown) [8-OH-DPAT, 8-hydroxy-N,N-dipropyl-1,2,3,4-tetrahydronaphthalen-2-amine, reference compound] |  |  |  |  | higher affinity at the 5-HT1A receptor over 5-HT1B and 5-HT1D receptors ([1]; affinity ratio): 10–20 fold |
| CN(C)[C@@H]1CCc2c(cccc2-c2ccccc2)C1 [(R)-5-PAT] | 1.05 | 1.32 | 0.282 | > 10 |  |
| CCCN(CCC)[C@@H]1CCc2cccc(O)c2C1 [(R)-8-OH-DPAT, 8-hydroxy-N,N-dipropyl-1,2,3,4-tetrahydronaphthalen-2-amine, reference compound] |  |  |  |  | 5-HT1A EMAX (%) [5]: 95 ± 4%; 5-HT1B EMAX (%) [6]: 87 ± 4%; 5-HT1D EMAX (%) [7]: 96 ± 2% |
| CN(C)[C@@H]1CCc2c(cccc2-c2ccccc2Cl)C1 [(R)-CPT] | 2.14 | 0.0724 | 0.417 | > 10 |  |
| CCCN(CCC)[C@@H]1CCc2c(cccc2-c2ccccc2Cl)C1 [(R)-DCPT] | 0.117 | 0.055 | 0.117 | > 10 |  |
| CCCN(CCC)[C@@H]1CCc2c(cccc2-c2ccccc2F)C1 [(R)-DFPT] | 0.117 | 0.0646 | 0.107 | > 10 |  |
| CN(C)[C@@H]1CCc2c(cccc2-c2ccco2)C1 [(R)-FAT] | 0.537 | 0.55 | 0.214 | > 10 |  |
| CN(C)[C@@H]1CCc2c(cccc2-c2ccccc2F)C1 [(R)-FPT] |  | 0.24 | 0.912 | > 10 |  |
| CN(C)[C@@H]1CCc2c(cccc2-c2cccc3ccccc23)C1 [(R)-NAP] | 0.263 | 0.155 | 0.107 | > 10 |  |
| CN(C)[C@@H]1CCc2c(cccc2-c2cccn2C)C1 [(R)-NMP] |  | 0.339 | 0.316 | > 10 | Affinity (pKi ± SD) 5-HT1A ([1]; WT receptor, [^3H]5-CT competition, mean ± SD): 6.26 ± 0.03 |
| Fc1ccccc1-c1cccc2c1CC[C@@H](N1CCCC1)C2 [(R)-PFPT] |  |  |  |  | Ki ([1]; read-out: Affinity (pKi ± SD) 5-HT1A (converted)): 0.288 µM; Ki ([2]; read-out: Affinity (pKi ± SD) 5-HT1B (converted)): 0.457 µM; Ki ([3]; read-out: Affinity (pKi ± SD) 5-HT1D (converted)): 0.417 µM; Ki ([4]; WT receptor, [^3H]5-HT competition, mean ± SD, read-out: Affinity (pKi ± SD) 5-HT1F (converted)): > 10 µM |
| CN(C)[C@@H]1CCc2c(cccc2-c2cccs2)C1 [(R)-TAT] | 1.51 | 3.16 | 0.813 | > 10 |  |
